Results reported in patent US20230210770A1, “TOPICAL OPHTHALMOLOGICAL COMPOSITIONS AND METHODS FOR TREATING ABNORMAL ANGIOGENESIS” (ADS THERAPEUTICS LLC, priority 2020, published 2023).
≈ marks a conversion by molar mass, not a printed value. Blank lines part the entries; values can stand above or below the compound they belong to.

Columns and labels:
[1] = cited from earlier work
[2] = Solubility in water (reported); type: physicochemical
[3] = Solubility of nintedanib in various solubilizers; type: physicochemical
Method: Tare 1.5 mL Eppendorf tube 2. […] Add solubilizer and record weight 4. Add water pH 5 (except F3 & F4) and record weight 5. Beadbeater mix for 120 seconds 6. Place on rotating mixer for overnight at ambient temperature 7. Filter through 0.2 μm SPIN-X centrifuge filter 8. Measure pH of filtrate 9. Assay filtrate using CBT-001 standard solution [table]

[4] = Solubility of nintedanib in a representative water-based emulsion system; type: physicochemical; details: for solubility: water-based emulsion, aqueous with cosolvent or surfactant or cyclodextrin, Nintedanib solubility
[5] = tested on: rabbit glaucoma filtration surgery model; test: Rabbit glaucoma filtration surgery model; type: in vivo, New Zealand White rabbits; details: vs vehicle
[6] = Regorafenib concentration and degradation in F6H8 suspension by HPLC; type: physicochemical
Method: The Suspension was homogenized by stirring at room temperature for 15 minutes. […] The observed fluctuation was most likely due to inhomogeneity of the sample after manual shaking of the suspension.
[…] were injected into an Agilent 1100 HPLC system (Agilent, Waldbronn, Germany), and samples were run on a heated (40° C.) Symmetry C18 column (150×4.6 mm-3.5 um particle size, Waters, Eschborn, Germany) applying a flow rate of 1 ml/min. The mobile phase consisted of a mixture of potassium phosphate buffer pH 2.4 (A) and acetonitrile/ethanol (6/4) (B). The following gradient was applied: minute 0: A, 60%/B, 40%: minute 12: A, 20%/B, 80%: minute 16: A, 20%/B, 80%: minute 16.5: A, 60%/B, 40%: minute 20: A, 60%/B, 40%.

[7] = water-based emulsion of castor oil, polysorbate 80 and polyoxyl-35 castor oil

SMILES: CNC(=O)c1ccccc1Sc1ccc2c(/C=C/c3ccccn3)n[nH]c2c1 [Axitinib, axitinib]
solubility in water ([1]; water at neutral pH): 200 µg/mL (≈ 0.517 mM)

reported solubility in water, as percent [2]: < 0.001%
Nintedanib solubility ([3]; solubilizer BZA, filtrate pH 5.6): 0.01 mg/g
Nintedanib solubility ([3]; solubilizer BZK, filtrate pH 5.6): 0.20 mg/g
Nintedanib solubility ([3]; solubilizer Castor oil): 0.37 mg/g
Nintedanib solubility ([3]; solubilizer EtOH, filtrate pH 6.1): 0.01 mg/g
Nintedanib solubility ([3]; solubilizer Mineral oil): 0.00 mg/g
Nintedanib solubility ([3]; solubilizer PEG 400, filtrate pH 5.6): 0.17 mg/g
Nintedanib solubility ([3]; solubilizer PEG 8000, filtrate pH 6.0): 0.01 mg/g
Nintedanib solubility ([3]; solubilizer PG, filtrate pH 6.0): 0.01 mg/g
Nintedanib solubility ([3]; solubilizer PLXMR 188, filtrate pH 6.5): 0.01 mg/g
Nintedanib solubility ([3]; solubilizer PLXMR 407, filtrate pH 6.3): 0.01 mg/g
Nintedanib solubility ([3]; solubilizer polysorbate 20, filtrate pH 6.6): 0.06 mg/g
Nintedanib solubility ([3]; solubilizer polysorbate 80, filtrate pH 6.7): 0.25 mg/g
nintedanib dissolved by the emulsion system [4, 7]: 3 to 5 mg/mL
ophthalmic emulsion concentration of nintedanib [4, 7]: 0.3%-0.5
solubility ([4]; emulsion F70 lot 1: castor oil 1, polysorbate 80 1, polyoxyl-35 castor oil 2, water 95): 5000 µg/mL (≈ 9.27 mM)
solubility ([4]; emulsion F70 lot 2: castor oil 1, polysorbate 80 1, polyoxyl-35 castor oil 2, water 95): 3400 µg/mL (≈ 6.3 mM)
SMILES: COC(=O)c1ccc2c(c1)NC(=O)/C2=C(\Nc1ccc(N(C)C(=O)CN2CCN(C)CC2)cc1)c1ccccc1 [Nintedanib, nintedanib]
fibroblast density ([5]; group 3: 0.3% emulsion BID minus Day 7-Day 30, rabbit): trend of reduction not statistically significant
fibroblast density ([5]; group 4: 0.3% emulsion BID Day 1-Day 30, rabbit): significant reduction
reported solubility in water ([1]; water): less than 0.01 mg/mL

Measured regorafenib concentration, % of theoretical concentration ([6]; 400 mg micronized regorafenib monohydrate suspended in 20 ml F6H8, HPLC): 95.4-99.1%
SMILES: CNC(=O)c1cc(Oc2ccc(NC(=O)Nc3ccc(Cl)c(C(F)(F)F)c3)c(F)c2)ccn1 [Regorafenib, regorafenib]
degradation products in HPLC chromatograms ([6]; 400 mg micronized regorafenib monohydrate suspended in 20 ml F6H8): No unidentified degradation product was observed
